# Results taken from ChEMBL document CHEMBL5212743, “Selectivity Literature for EUbOPEN Chemogenomics Library wave 3” (2023).
# Columns and labels:
# [1] = molecular target: Maternal embryonic leucine zipper kinase (Homo sapiens) (UniProt Q14680); experiment: Selectivity interaction (KinomeScan (DiscoverX)) EUB0000332a MELK; settings: at 1 µM
# [2] = molecular target: SRSF protein kinase 2 (Homo sapiens) (UniProt P78362); experiment: Selectivity interaction (KinomeScan (DiscoverX)) EUB0000332a SRPK2; settings: at 1 µM
# SRSF protein kinase 2 (Homo sapiens), sequence (P78362 whole entry, looked up): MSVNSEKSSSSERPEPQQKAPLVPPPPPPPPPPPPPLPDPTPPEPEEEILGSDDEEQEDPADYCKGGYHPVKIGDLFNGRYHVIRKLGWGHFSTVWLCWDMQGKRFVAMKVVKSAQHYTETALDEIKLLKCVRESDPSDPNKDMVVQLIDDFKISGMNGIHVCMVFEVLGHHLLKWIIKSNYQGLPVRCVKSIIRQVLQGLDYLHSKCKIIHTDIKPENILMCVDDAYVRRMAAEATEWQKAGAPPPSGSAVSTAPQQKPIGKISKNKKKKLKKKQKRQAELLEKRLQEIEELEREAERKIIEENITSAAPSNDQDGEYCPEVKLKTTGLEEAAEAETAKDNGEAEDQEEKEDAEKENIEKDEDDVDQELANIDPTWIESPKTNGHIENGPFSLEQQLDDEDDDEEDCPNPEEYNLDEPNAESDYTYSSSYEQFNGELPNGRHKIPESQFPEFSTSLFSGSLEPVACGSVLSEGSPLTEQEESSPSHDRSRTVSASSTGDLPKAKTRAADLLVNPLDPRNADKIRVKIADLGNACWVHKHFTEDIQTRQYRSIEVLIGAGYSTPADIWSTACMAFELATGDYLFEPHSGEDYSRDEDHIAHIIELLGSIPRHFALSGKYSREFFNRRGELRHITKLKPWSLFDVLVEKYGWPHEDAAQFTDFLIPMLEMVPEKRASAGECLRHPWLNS
# [3] = molecular target: Megakaryocyte-associated tyrosine-protein kinase (Homo sapiens) (UniProt P42679); experiment: Selectivity interaction (KinomeScan (DiscoverX)) EUB0000332a MATK; settings: at 1 µM
# Megakaryocyte-associated tyrosine-protein kinase (Homo sapiens), sequence (P42679 whole entry): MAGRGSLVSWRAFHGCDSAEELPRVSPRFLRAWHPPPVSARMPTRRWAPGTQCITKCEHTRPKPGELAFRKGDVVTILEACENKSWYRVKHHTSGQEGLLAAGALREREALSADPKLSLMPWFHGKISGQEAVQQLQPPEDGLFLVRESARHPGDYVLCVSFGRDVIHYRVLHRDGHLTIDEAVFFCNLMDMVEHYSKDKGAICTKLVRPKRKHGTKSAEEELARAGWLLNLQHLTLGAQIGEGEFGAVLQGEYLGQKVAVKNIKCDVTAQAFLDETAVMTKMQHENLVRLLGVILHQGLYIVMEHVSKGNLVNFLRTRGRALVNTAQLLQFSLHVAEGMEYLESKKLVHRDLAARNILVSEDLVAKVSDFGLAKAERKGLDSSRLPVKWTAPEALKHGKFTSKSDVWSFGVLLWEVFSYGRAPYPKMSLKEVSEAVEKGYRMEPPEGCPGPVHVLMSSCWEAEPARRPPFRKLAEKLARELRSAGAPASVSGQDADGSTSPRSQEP
# [4] = molecular target: T1, G protein-coupled receptor kinase 3 (Homo sapiens) (UniProt P35626); experiment: Selectivity interaction (KinomeScan (DiscoverX)) EUB0000332a ADRBK2; settings: at 1 µM
# T1 sequence (whole entry): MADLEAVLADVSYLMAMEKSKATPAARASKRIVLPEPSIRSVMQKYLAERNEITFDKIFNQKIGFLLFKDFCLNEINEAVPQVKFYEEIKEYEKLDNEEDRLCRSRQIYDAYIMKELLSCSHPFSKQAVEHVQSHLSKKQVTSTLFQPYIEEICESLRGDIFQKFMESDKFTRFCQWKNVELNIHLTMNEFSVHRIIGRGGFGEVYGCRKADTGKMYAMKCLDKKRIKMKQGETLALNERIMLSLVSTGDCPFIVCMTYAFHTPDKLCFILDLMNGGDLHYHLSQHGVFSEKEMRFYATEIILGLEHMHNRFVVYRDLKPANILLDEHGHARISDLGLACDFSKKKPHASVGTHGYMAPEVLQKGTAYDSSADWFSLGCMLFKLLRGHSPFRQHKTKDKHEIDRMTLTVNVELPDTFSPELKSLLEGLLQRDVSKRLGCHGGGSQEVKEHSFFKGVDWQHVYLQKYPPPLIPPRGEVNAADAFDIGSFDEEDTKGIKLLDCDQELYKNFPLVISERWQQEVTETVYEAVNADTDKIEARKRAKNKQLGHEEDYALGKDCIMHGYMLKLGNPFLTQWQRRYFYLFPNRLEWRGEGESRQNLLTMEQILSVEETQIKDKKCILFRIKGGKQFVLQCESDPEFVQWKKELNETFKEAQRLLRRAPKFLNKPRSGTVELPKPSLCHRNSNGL
# [5] = molecular target: Mitogen-activated protein kinase 9 (Homo sapiens, UniProt P45984); experiment: Selectivity interaction (KinomeScan (DiscoverX)) EUB0000634a MAPK9; settings: at 1 µM
# [6] = molecular target: Mast/stem cell growth factor receptor Kit (Homo sapiens, UniProt P10721); experiment: Selectivity interaction (KinomeScan (DiscoverX)) EUB0000634a KIT; settings: at 1 µM
# [7] = molecular target: Platelet-derived growth factor receptor beta (Homo sapiens, UniProt P09619); experiment: Selectivity interaction (KinomeScan (DiscoverX)) EUB0000634a PDGFRB; settings: at 1 µM
# Platelet-derived growth factor receptor beta, sequence (P09619 whole entry): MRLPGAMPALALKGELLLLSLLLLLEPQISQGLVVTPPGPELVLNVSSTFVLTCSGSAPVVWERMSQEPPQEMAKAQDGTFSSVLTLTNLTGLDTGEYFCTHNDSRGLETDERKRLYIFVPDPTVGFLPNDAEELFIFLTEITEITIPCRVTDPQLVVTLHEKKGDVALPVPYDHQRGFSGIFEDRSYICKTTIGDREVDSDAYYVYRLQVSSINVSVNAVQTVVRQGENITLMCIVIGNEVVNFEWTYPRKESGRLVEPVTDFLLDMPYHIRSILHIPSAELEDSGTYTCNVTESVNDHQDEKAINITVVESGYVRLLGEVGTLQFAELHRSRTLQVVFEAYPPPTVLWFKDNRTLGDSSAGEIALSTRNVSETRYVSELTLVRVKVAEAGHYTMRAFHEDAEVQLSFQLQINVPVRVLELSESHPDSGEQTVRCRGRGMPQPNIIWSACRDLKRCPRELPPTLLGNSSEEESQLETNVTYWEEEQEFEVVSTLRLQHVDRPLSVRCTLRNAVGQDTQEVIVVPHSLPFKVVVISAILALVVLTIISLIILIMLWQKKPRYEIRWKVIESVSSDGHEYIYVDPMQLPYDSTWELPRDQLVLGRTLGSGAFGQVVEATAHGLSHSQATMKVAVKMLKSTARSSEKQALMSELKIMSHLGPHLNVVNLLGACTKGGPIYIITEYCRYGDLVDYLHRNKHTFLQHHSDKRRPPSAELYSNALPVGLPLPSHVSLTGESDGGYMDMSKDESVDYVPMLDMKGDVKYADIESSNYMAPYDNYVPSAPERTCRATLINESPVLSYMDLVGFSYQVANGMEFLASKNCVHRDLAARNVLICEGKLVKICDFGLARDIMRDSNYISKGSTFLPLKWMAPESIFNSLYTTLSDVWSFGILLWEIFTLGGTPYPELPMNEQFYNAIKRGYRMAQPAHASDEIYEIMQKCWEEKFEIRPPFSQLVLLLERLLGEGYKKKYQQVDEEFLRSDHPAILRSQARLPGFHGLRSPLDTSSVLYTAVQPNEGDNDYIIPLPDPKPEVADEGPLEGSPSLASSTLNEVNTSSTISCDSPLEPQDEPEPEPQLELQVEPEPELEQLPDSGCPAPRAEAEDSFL
# [8] = molecular target: Serine/threonine-protein kinase Nek5 (Homo sapiens) (UniProt Q6P3R8); experiment: Selectivity interaction (KinomeScan (DiscoverX)) EUB0000339a NEK5; settings: at 1 µM
# [9] = molecular target: T2, Myosin-IIIb (Homo sapiens) (UniProt Q8WXR4); experiment: Selectivity interaction (KinomeScan (DiscoverX)) EUB0000339a MYO3B; settings: at 1 µM
# T2 sequence (whole entry): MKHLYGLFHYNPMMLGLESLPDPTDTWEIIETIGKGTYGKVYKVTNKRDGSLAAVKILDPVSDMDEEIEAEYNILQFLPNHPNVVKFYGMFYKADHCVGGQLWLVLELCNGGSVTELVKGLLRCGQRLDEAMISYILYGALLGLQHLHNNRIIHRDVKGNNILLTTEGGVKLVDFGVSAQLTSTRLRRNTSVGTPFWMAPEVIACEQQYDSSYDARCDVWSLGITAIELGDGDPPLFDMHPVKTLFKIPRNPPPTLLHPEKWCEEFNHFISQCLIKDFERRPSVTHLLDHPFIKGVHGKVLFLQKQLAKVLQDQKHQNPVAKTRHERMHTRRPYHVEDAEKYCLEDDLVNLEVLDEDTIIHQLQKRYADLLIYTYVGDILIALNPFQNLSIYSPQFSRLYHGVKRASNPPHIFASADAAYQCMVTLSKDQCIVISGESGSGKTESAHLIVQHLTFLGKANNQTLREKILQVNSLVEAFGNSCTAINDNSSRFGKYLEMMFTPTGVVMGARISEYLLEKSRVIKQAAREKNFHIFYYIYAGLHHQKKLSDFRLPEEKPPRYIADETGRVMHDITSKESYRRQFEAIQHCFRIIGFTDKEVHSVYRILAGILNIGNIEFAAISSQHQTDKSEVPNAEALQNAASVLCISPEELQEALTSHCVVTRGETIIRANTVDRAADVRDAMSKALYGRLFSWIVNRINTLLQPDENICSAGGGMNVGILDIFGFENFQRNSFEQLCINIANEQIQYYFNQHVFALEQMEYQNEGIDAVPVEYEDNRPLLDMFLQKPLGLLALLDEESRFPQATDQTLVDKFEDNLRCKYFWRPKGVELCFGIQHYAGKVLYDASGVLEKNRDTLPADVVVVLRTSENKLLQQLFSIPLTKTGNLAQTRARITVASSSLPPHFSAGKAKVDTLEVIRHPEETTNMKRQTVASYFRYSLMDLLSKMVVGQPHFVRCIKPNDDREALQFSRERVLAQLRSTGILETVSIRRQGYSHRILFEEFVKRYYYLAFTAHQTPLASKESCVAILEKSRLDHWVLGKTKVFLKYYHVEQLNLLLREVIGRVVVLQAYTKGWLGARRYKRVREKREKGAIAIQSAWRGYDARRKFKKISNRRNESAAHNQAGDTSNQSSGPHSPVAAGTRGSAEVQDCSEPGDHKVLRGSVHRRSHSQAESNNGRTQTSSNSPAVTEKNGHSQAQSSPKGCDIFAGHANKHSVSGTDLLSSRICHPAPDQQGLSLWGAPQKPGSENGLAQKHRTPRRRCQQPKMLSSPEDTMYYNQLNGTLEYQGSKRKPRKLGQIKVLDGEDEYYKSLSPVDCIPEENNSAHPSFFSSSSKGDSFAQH
# [10] = molecular target: Receptor-interacting serine/threonine-protein kinase 1 (Homo sapiens) (UniProt Q13546); experiment: Selectivity interaction (KinomeScan (DiscoverX)) EUB0000339a RIPK1; settings: at 1 µM
# Receptor-interacting serine/threonine-protein kinase 1 (Homo sapiens), sequence (Q13546 whole entry): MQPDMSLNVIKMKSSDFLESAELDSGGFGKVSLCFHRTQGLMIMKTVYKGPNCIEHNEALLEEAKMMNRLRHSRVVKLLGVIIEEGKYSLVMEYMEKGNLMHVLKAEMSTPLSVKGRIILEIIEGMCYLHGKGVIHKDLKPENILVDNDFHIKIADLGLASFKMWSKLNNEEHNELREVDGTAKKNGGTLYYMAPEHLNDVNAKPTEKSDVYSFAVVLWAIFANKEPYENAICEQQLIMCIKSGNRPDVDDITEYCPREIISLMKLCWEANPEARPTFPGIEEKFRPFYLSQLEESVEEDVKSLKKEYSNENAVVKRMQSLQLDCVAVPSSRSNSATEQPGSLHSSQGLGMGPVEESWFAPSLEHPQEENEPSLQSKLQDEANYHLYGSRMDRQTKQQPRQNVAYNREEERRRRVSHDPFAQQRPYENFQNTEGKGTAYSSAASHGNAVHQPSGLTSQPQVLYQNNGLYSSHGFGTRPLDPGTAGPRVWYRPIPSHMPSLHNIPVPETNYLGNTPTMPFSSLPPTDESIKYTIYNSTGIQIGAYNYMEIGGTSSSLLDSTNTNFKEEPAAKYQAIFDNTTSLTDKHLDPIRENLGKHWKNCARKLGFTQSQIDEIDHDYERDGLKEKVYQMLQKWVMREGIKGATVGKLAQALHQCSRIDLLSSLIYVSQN
# Histamine H1 receptor = Histamine H1 receptor (Homo sapiens, UniProt P35367); experiment: Selectivity interaction (GPCR panel (PDSP screen)) EUB0000350a HRH1; settings: at 10 µM
# [11] = molecular target: Dual specificity tyrosine-phosphorylation-regulated kinase 1B (Homo sapiens, UniProt Q9Y463); experiment: Selectivity interaction (KinomeScan (DiscoverX)) EUB0000736a DYRK1B; settings: at 1 µM
# [12] = test system: Tyrosine-protein kinase ABL1 (Homo sapiens), P00519 [M351T]; experiment: (§1) Selectivity interaction (KinomeScan (DiscoverX)) EUB0000736a ABL1; settings: at 1 µM
# [13] = test system: Tyrosine-protein kinase ABL1 (Homo sapiens), P00519 [T315I]; experiment: as §1; settings: at 10 µM
# [14] = molecular target: Ephrin type-A receptor 4 (Homo sapiens) (UniProt P54764); experiment: Selectivity interaction (KinomeScan (DiscoverX)) EUB0000736a EPHA4; settings: at 1 µM
# [15] = molecular target: Ephrin type-B receptor 3 (Homo sapiens) (UniProt P54753); experiment: Selectivity interaction (KinomeScan (DiscoverX)) EUB0000736a EPHB3; settings: at 1 µM
# [16] = molecular target: Ephrin type-A receptor 6 (Homo sapiens) (UniProt Q9UF33); experiment: Selectivity interaction (KinomeScan (DiscoverX)) EUB0000736a EPHA6; settings: at 1 µM
# [17] = molecular target: T3, Homeodomain-interacting protein kinase 4 (Homo sapiens) (UniProt Q8NE63); experiment: Selectivity interaction (KinomeScan (DiscoverX)) EUB0000263b HIPK4; settings: at 1 µM
# T3 sequence (whole entry): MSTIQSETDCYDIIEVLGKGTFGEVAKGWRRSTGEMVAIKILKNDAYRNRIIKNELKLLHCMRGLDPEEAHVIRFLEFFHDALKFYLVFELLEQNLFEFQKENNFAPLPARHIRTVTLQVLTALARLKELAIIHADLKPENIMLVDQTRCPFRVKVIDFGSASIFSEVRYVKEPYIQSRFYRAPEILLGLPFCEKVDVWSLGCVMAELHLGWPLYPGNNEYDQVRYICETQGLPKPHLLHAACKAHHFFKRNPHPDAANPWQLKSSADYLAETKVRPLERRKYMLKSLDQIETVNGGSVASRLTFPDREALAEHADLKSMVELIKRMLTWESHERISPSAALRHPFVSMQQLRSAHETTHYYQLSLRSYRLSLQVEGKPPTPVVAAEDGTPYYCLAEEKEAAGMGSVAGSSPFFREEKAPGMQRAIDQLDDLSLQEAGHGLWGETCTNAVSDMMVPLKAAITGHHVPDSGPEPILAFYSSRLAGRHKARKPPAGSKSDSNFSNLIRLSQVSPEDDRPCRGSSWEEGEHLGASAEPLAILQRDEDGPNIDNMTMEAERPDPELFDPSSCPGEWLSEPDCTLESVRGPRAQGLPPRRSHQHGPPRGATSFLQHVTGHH
# [18] = molecular target: T4, Mitogen-activated protein kinase 12 (Homo sapiens) (UniProt P53778); experiment: Selectivity interaction (KinomeScan (DiscoverX)) EUB0000263b MAPK12; settings: at 1 µM
# T4 sequence (whole entry): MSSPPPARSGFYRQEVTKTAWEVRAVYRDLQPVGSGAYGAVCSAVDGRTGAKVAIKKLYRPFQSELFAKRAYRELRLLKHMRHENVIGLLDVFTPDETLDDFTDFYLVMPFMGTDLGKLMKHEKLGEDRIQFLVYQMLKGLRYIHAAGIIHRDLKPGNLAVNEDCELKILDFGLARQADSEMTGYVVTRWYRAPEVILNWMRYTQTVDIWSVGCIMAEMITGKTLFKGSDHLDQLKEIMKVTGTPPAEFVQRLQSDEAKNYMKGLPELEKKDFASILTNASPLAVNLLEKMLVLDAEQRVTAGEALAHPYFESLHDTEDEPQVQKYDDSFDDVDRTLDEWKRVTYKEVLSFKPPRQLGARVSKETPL
# [19] = molecular target: Voltage-dependent L-type calcium channel subunit alpha-1S (Homo sapiens) (UniProt Q13698); experiment: Selectivity interaction (CEREP panel (Eurofins)) EUB0000263b CACNA1S; settings: at 10 µM
# Voltage-dependent L-type calcium channel subunit alpha-1S (Homo sapiens), sequence (Q13698 whole entry): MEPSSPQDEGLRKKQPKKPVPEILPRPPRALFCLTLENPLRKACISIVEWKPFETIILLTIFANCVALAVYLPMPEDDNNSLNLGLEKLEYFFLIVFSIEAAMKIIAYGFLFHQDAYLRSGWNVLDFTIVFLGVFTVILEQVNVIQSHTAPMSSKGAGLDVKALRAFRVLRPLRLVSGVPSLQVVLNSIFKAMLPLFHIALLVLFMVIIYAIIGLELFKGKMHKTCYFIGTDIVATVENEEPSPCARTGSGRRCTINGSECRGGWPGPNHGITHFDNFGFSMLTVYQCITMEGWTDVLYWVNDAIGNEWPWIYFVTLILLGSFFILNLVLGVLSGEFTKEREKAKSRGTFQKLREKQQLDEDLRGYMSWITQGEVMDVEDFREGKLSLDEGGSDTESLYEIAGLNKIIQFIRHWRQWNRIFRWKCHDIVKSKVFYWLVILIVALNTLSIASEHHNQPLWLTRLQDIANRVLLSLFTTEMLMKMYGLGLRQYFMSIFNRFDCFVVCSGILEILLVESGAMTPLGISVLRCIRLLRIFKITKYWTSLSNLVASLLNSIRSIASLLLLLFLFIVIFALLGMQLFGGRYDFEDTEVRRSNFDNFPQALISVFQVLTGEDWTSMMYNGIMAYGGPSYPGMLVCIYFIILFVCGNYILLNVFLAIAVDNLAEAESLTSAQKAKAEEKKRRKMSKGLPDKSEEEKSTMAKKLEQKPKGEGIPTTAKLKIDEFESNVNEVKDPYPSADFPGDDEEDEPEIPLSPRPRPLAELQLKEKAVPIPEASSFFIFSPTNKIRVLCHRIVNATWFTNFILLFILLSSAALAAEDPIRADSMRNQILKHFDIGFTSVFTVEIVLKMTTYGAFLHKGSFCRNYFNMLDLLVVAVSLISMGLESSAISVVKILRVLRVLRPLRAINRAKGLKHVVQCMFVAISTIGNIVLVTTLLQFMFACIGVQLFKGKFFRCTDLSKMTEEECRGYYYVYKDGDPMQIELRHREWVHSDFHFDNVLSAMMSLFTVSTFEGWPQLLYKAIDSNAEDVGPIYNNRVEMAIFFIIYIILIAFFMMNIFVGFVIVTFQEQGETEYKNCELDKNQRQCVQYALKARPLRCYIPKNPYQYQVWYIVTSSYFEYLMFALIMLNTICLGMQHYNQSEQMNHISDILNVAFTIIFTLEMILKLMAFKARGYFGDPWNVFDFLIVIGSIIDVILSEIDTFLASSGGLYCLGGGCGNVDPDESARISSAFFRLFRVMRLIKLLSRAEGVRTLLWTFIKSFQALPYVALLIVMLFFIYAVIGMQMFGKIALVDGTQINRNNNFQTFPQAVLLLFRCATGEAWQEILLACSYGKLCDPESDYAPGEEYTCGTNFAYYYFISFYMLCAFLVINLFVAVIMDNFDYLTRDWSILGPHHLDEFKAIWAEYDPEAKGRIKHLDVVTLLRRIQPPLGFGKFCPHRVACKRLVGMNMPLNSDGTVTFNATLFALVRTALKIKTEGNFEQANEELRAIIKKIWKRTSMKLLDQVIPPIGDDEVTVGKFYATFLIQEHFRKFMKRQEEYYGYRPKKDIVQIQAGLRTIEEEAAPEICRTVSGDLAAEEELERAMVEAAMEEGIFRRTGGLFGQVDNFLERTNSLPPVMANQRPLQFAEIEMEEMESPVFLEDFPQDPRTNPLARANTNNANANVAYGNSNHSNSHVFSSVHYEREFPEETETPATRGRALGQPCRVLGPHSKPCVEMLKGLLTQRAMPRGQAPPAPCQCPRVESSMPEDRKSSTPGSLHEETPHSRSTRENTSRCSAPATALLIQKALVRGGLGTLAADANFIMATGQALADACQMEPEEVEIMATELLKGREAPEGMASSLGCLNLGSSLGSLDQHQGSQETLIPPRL
# [20] = molecular target: Voltage-dependent L-type calcium channel subunit alpha-1S (Homo sapiens) (UniProt Q13698); experiment: Selectivity interaction (Enzyme panel (Eurofins-Cerep)) EUB0000263b CACNA1S; settings: at 10 µM
structure (smiles),measurement,setting,value
CSc1cccnc1N1CCN(Cc2nc3ccccc3[nH]2)CC1,% of control,[1],46%
same,% of control,[2],59%
same,% of control,[3],45%
same,% of control,[4],31%
COc1ccc(Oc2cc(NCCC(F)(F)F)c3ncc(-c4ccc(C(=O)NC5CC5)c(C)c4)n3n2)c(F)c1F,% of control,[5],4%
same,% of control,[6],2%
same,% of control,[7],0%
CCCOc1ccc([C@@H]2[C@@H](C(=O)O)[C@H](c3ccc4c(c3)OCO4)CN2CC(=O)Nc2c(CC)cccc2CC)cc1,% of control,[8],55%
same,% of control,[9],52%
same,% of control,[10],55%
CCCOc1ccc([C@H]2[C@H](C(=O)O)[C@@H](c3ccc4c(c3)OCO4)CN2CC(=O)Nc2c(CC)cccc2CC)cc1,% of inhibition,Histamine H1 receptor,36%
Cn1cncc1[C@@](O)(COc1ccc(C#N)cc1-c1ccc(OC(F)(F)F)cc1)c1ccc(C#N)cc1,% of control,[11],38%
same,% of control,[12],6.2%
same,% of control,[13],6.1%
same,% of control,[14],12%
same,% of control,[15],6%
same,% of control,[16],3%
CO[C@H]1CC[C@H](CNc2ccc(S(=O)(=O)NC(=O)c3ccc(N4CCN(CC5=C(c6ccc(Cl)cc6)CC(C)(C)CC5)CC4)cc3Oc3cnc4[nH]ccc4c3)cc2[N+](=O)[O-])CC1,% of control,[17],4.4%
same,% of control,[18],47%
same,% of inhibition,[19],63.2%
same,% of inhibition,[20],63.2%
